Experimental data as given in PubChem BioAssay AID1259407 (Chemical Carcinogenesis Research Information System (CCRIS), 2018).
Active and inactive are the calls of the source. No rule for the calls is given here.

Test system: CCRIS mutagenicity, Ames/micronucleus/aberration tests
Test: CCRIS mutagenicity studies
[1] = Test System: AMES SALMONELLA TYPHIMURIUM, Strain/Indicator: TA98, Metabolic Activation: NONE, Method: STANDARD PLATE
[2] = Test System: AMES SALMONELLA TYPHIMURIUM, Strain/Indicator: TA100, Metabolic Activation: NONE, Method: STANDARD PLATE
[3] = Test System: AMES SALMONELLA TYPHIMURIUM, Strain/Indicator: TA100, Metabolic Activation: NONE, Method: PREINCUBATION
[4] = Test System: AMES SALMONELLA TYPHIMURIUM, Strain/Indicator: TA102, Metabolic Activation: NONE, Method: PREINCUBATION

CCc1cc(-c2ccccc2)cc(CC)c1N was tested, and the mutagenic call [1] was “inactive; negative”, the mutagenic call (Test System: AMES SALMONELLA TYPHIMURIUM, Strain/Indicator: TA98, Metabolic Activation: RAT LIVER S-9, AROCLOR, Method: STANDARD PLATE) was “inactive; negative” and the mutagenic call [2] was “inactive; negative”. The mutagenic call (Test System: AMES SALMONELLA TYPHIMURIUM, Strain/Indicator: TA100, Metabolic Activation: RAT LIVER S-9, AROCLOR, Method: STANDARD PLATE) was “inactive; negative”.

CC(=O)NNc1ccc(CO)cc1 was tested, and the mutagenic call (Test System: AMES SALMONELLA TYPHIMURIUM, Strain/Indicator: TA104, Metabolic Activation: MUSHROOM TYROSINASE, Method: PREINCUBATION) was “active; positive”, the mutagenic call (Test System: AMES SALMONELLA TYPHIMURIUM, Strain/Indicator: TA104, Metabolic Activation: NONE, Method: PREINCUBATION) was “inactive; negative” and the mutagenic call (Test System: AMES SALMONELLA TYPHIMURIUM, Strain/Indicator: TA104, Metabolic Activation: RAT, LIVER, CYTOSOL AND MICROSOMES, AROCLOR 1254, NADPH, Method: PREINCUBATION) was “active; positive”. For the same molecule, the mutagenic call (Test System: AMES SALMONELLA TYPHIMURIUM, Strain/Indicator: TA104, Metabolic Activation: RAT, LIVER, CYTOSOL AND MICROSOMES, AROCLOR 1254, Method: PREINCUBATION) was “inactive; negative”, the mutagenic call (Test System: AMES SALMONELLA TYPHIMURIUM, Strain/Indicator: TA104, Metabolic Activation: RAT, LIVER, CYTOSOL, AROCLOR 1254, Method: PREINCUBATION) was “inactive; negative” and the mutagenic call (Test System: AMES SALMONELLA TYPHIMURIUM, Strain/Indicator: TA104, Metabolic Activation: RAT, LIVER, MICROSOMES, AROCLOR 1254, NADPH, Method: PREINCUBATION) was “inactive; negative”. For the same molecule, the mutagenic call (Test System: AMES SALMONELLA TYPHIMURIUM, Strain/Indicator: TA1535, Metabolic Activation: NONE, Method: PREINCUBATION) was “inactive; negative”, the mutagenic call (Test System: AMES SALMONELLA TYPHIMURIUM, Strain/Indicator: TA1535, Metabolic Activation: RAT, LIVER, S-9, AROCLOR 1254, Method: PREINCUBATION) was “inactive; negative” and the mutagenic call (Test System: AMES SALMONELLA TYPHIMURIUM, Strain/Indicator: TA1537, Metabolic Activation: NONE, Method: PREINCUBATION) was “active; positive”. For the same molecule, the mutagenic call (Test System: AMES SALMONELLA TYPHIMURIUM, Strain/Indicator: TA1537, Metabolic Activation: RAT, LIVER, S-9, AROCLOR 1254, Method: PREINCUBATION) was “inactive; negative”.

C=CCCCCCCCCCCC was tested, and the mutagenic call (Test System: AMES SALMONELLA TYPHIMURIUM, Strain/Indicator: TA98, Metabolic Activation: MOUSE, LIVER, S-9, Method: STANDARD PLATE) was “inactive; negative”, the mutagenic call [1] was “inactive; negative” and the mutagenic call (Test System: AMES SALMONELLA TYPHIMURIUM, Strain/Indicator: TA100, Metabolic Activation: MOUSE, LIVER, S-9, Method: STANDARD PLATE) was “inactive; negative”. The mutagenic call [2] was “inactive; negative”, the mutagenic call (Test System: AMES SALMONELLA TYPHIMURIUM, Strain/Indicator: TA1535, Metabolic Activation: NONE, Method: STANDARD PLATE) was “inactive; negative” and the mutagenic call (Test System: AMES SALMONELLA TYPHIMURIUM, Strain/Indicator: TA1538, Metabolic Activation: NONE, Method: STANDARD PLATE) was “inactive; negative”.

With O=[N+]([O-])[C-]1CCCC1 the mutagenic call [3] was “active; positive”, the mutagenic call (Test System: AMES SALMONELLA TYPHIMURIUM, Strain/Indicator: TA100, Metabolic Activation: RAT, LIVER, S-9, AROCLOR, Method: PREINCUBATION) was “active; positive” and the mutagenic call [4] was “active; positive”. The mutagenic call (Test System: AMES SALMONELLA TYPHIMURIUM, Strain/Indicator: TA102, Metabolic Activation: RAT, LIVER, S-9, AROCLOR, Method: PREINCUBATION) was “active; positive”.

With COc1cc(NCCCCCNC(C)C)c2ncccc2c1 the mutagenic call (Test System: AMES SALMONELLA TYPHIMURIUM, Strain/Indicator: TA97, Metabolic Activation: NONE, Method: PREINCUBATION) was “inactive; negative”, the mutagenic call (Test System: AMES SALMONELLA TYPHIMURIUM, Strain/Indicator: TA97, Metabolic Activation: RAT, LIVER, S-9, PHENOBARBITAL AND BETA-NAPHTHOFLAVONE, Method: PREINCUBATION) was “active; positive” and the mutagenic call (Test System: AMES SALMONELLA TYPHIMURIUM, Strain/Indicator: TA98, Metabolic Activation: NONE, Method: PREINCUBATION) was “inactive; negative”. The mutagenic call (Test System: AMES SALMONELLA TYPHIMURIUM, Strain/Indicator: TA98, Metabolic Activation: RAT, LIVER, S-9, PHENOBARBITAL AND BETA-NAPHTHOFLAVONE, Method: PREINCUBATION) was “inactive; negative”, the mutagenic call [3] was “inactive; negative” and the mutagenic call (Test System: AMES SALMONELLA TYPHIMURIUM, Strain/Indicator: TA100, Metabolic Activation: RAT, LIVER, S-9, PHENOBARBITAL AND BETA-NAPHTHOFLAVONE, Method: PREINCUBATION) was “inactive; negative”. For the same molecule, the mutagenic call [4] was “inactive; negative”, the mutagenic call (Test System: AMES SALMONELLA TYPHIMURIUM, Strain/Indicator: TA102, Metabolic Activation: RAT, LIVER, S-9, PHENOBARBITAL AND BETA-NAPHTHOFLAVONE, Method: PREINCUBATION) was “inactive; negative” and the mutagenic call (Test System: E.COLI, Strain/Indicator: WP2UVRA/PKM101, Metabolic Activation: NONE, Method: PREINCUBATION) was “inactive; negative”. For the same molecule, the mutagenic call (Test System: E.COLI, Strain/Indicator: WP2UVRA/PKM101, Metabolic Activation: RAT LIVER S-9, PHENOBARBITAL AND 5,6-BENZOFLAVONE, Method: PREINCUBATION) was “inactive; negative”.

For CCC[CH2][Sn]([Cl])([Cl])[Cl], the mutagenic call (Test System: AMES SALMONELLA TYPHIMURIUM, Strain/Indicator: TA98, Metabolic Activation: NONE, Method: SUSPENSION/PLATE) was “inactive; negative” and the mutagenic call (Test System: AMES SALMONELLA TYPHIMURIUM, Strain/Indicator: TA100, Metabolic Activation: NONE, Method: SUSPENSION/PLATE) was “inactive; negative”.
